The record followed here is patent US6369057B1, “Quinoxalines, processes for their preparation and their use” (Aventis Pharma Deutschland GmbH, priority 1991, dated 2002).

Where a name gives a salt, the structure may show the parent alone.

One data set has as its system HIV. In words: Test of preparations against HIV in cell culture (T-cell culture assay). The format is cell-based. Conditions: lowest concentration where no giant cells were observed; HIV-infected lymphocytes from donor blood, 3 days at 37° C. As for the experimental part: Test of Preparations Against HIV in Cell Culture
Complete medium additionally contains 20% fetal calf serum and 40 IU/ml recombinant interleukin 2.
Lymphocytes which have been isolated from fresh donor blood by means of Ficoll gradient centrifugation are cultured for 36 hours in complete medium with an addition of 2 μg/ml phytohemagglutinin (Wellcome) at 37° C. under 5% of CO2. After 10% of DMSO has been added, the cells are frozen at a density of 5 [formula]10^6 and stored in liquid nitrogen. For the test, the cells are defrosted, washed in RPMI medium and cultured for 3-4 days in the complete medium.
The test preparations were dissolved in DMSO at a concentration of 16.7 mg/ml and diluted in complete medium to 1 mg/ml.
0.4 ml of medium was introduced into 24-multiwell dishes. 0.1 ml of the dissolved preparation was added to the upper row of the dish, and, by transferring 0.1 ml portions, a geometric dilution series was established. Controls without preparation always contained 0.4 ml of complete medium containing 0.5% of DMSO. Lymphocyte cultures with a cell density of 5 [formula]10^5 cells/ml were infected by adding 1/50 volume supernatant from HIV-infected lymphocyte cultures. The titer of these culture supernatants was determined by end-point titration as 1-5 [formula]10^6 infectious units/ml. After 30 minutes' incubation at 37° C., the infected lymphocytes were removed by centrifugation and taken up in an equal volume of medium. From this cell suspension, 0.6 ml aliquots were transferred into all wells of the test plate. The mixtures were incubated for 3 days at 37° C.
The infected cell cultures were examined under the microscope for the presence of giant cells, which indicate active virus multiplication in the culture. The lowest concentration of preparation where no giant cells were observed was determined as inhibitory concentration against HIV. As a control, the supernatants from the culture plates were tested for the presence of HIV antigen with the aid of an HIV antigen test following the manufacturer's instructions (Organon).

Data set [1] addresses T1, HIV reverse transcriptase (RT) (Human immunodeficiency virus type 1 group M subtype B, UniProt P03366).
T1 construct: The enzyme RT (from HIV cloned in E. coli); purchased HT-Biotechnology Ltd, Cambridge, UK; host or cells: E. coli
In words: Assay for HIV reverse transcriptase inhibition (scintillation proximity assay). In kind it is biochemical. Conditions: RT from HIV cloned in E. coli; SPA, 60 minutes (37° C.). The method, then: Assay of the Substances for HIV Reverse Transcriptase Inhibition
The activity of reverse transcriptase (RT) was determined with the aid of a scintillation proximity assay (SPA).
The reagent kit for the RT-SPA was obtained from Amersham/Buchler (Braunschweig).
The enzyme RT (from HIV cloned in E. coli) originated from HT-Biotechnology Ltd, Cambridge, UK.
The assay was carried out using the manufacturer's (Amersham) protocol manual, with the following modifications: bovine serum albumin was added to the assay buffer to give an end concentration of 0.5 mg/ml the assay was carried out in Eppendorf reaction vessels, using 100 μl volume per batch the manufacturer's RT concentrate (5000 U/ml) was diluted in Tris-HCl buffer 20 mM; pH 7.2; 30% of glycerol, to an activity of 15 U per ml the incubation time for the mixtures was 60 minutes (37° C.) after stopping the reaction and “developing” with the bead suspension, 130 μl of mixture were transferred to 4.5 ml of Tris-HCl buffer, 10 mM; pH 7.4; 0.15 M NaCl, and the tritium activity was measured by means of a [formula]-counter.
For a pre-assay for inhibitory activity, the substances were dissolved in DMSO (stock solution c=1 mg/ml), and tested as a 10^−1, 10^−2, 10^−3, etc., dilution in DMSO.
To determine IC50 values, the inhibitor stock solutions were diluted further in Tris-HCl buffer, 50 mM, pH 8, and tested in suitable concentrations.
The concentration corresponding to a 50% enzyme inhibition was determined from a plot of RT activity versus log Clnh.
Background: Scintillation proximity formats need no separation of bound from free tracer.

Usually melting point stands for the temperature, or range, at which the solid turns liquid. Molecule `O=C1CNc2ccc(S(=O)(=O)Oc3ccccc3)cc2N1` [XXIX, 7-Phenoxysulfonyl-3,4-dihydroquinoxalin-2(1H)-one] yielded a melting point of 253 to 254 °C.

The molecule `CC(C)=CCN1CC(=O)Nc2ccc(Cl)cc21` [Example XV, 6-Chloro-4-N-(3-methyl-2-buten-1-yl)-3,4-dihydro-quinoxalin-2(1H)-one] came in with a melting point of 150 to 151 °C.

Molecule `C[C@@H]1Nc2cc(Cl)ccc2NC1=O` [Example IB, (3S)-6-Chloro-3-methyl-3,4-dihydroquinoxalin-2(1H)-one] had a melting point of 122 to 123 °C.

As to `O=C1Nc2cc(Cl)ccc2N[C@H]1Cc1ccccc1` [Example II, (3S)-3-Benzyl-7-chloro-3,4-dihydroquinoxalin-2(1H)-one], the melting point is 185 °C.

For the molecule `CC1(C)Nc2ccc(Cl)cc2N(C2CC2)C1=O` [XIX, 7-Chloro-1-N-(cyclopropyl)-3,3-dimethyl-3,4-dihydroquinoxalin-2(1H)-one], the melting point was in the range of 132 to 133 °C.

Turning to `CC(C)CC1Nc2c(S(=O)(=O)Oc3ccccc3)ccc(N3CCN(C)CC3)c2NC1=O` (stereo not drawn) (as salt: hydrochloride) [XXXII, 8-(4-Methyl-1-piperazinyl)-3-(2-methylpropyl)-5-phenoxysulfonyl-3,4-dihydroquinoxalin-2(1H)-one], the melting point was ≥ 90 °C (dec.).

Take `CC1C(=O)Nc2ccc(Cl)cc2N1C1CC1` (racemic) [Example XVIII, (3RS)-6-Chloro-4-N-(cyclopropyl)-3-methyl-3,4-dihydroquinoxalin-2(1H)-one]: the melting point worked out at 167 °C.

The molecule `C[C@H]1C(=O)Nc2ccc(Cl)cc2N1C(=O)Oc1ccc(Cl)cc1` [Example XI, (3S)-6-Chloro-4-N-(4-chlorophenoxycarbonyl)-3-methyl-3,4-dihydroquinoxalin-2(1H)-one] displayed a melting point of 185 to 188 °C.

Molecule `C=C(C)OC(=O)N1c2ccc(C)cc2NC(=O)C1(C)C` [VIII, 4-N-(Isopropenyloxycarbonyl)-3,3,7-trimethyl-3,4-di-hydroquinoxalin-2(1H)-one] displayed a melting point of 185 °C.

`CC(C)=CCN1c2cc(Cl)ccc2NC(=O)C1(C)C` [Example 6-1]: in the data set on HIV, the “T-cell culture assay MIC” value worked out at 0.4 µg/mL. Moreover, in data set [1], the “Reverse Transcriptase Assay IC50” value is listed as “approx. 1 μg/ml”.

`COc1cc2c(cc1OC)NC(C)C(=O)N2` (stereo not drawn) [Example XVII, 6,7-Dimethoxy-3-methyl-3,4-dihydroquinoxalin-2(1H)-one] yielded a melting point of 151 °C.

As to `CCCOC(=O)N1c2cc(Cl)ccc2NC(=O)C1C` (stereo not drawn) [Example 3-24], in the data set with HIV, the “T-cell culture assay MIC” value turned out to be 0.08 µg/mL. Also, the “Reverse Transcriptase Assay IC50” value in data set [1] fell in the range of 0.1 to 1 µg/mL.

Turning to `C[C@H]1C(=O)Nc2ccc(Cl)cc2N1C(=O)Cl` [Example XXXV, (3S)-6-Chloro-4-N-chlorocarbonyl-3-methyl-3,4-dihydroquinoxalin-2(1H)-one], the melting point is 142 to 144 °C.

Regarding `CC(C)=CCN1c2cc(C)c(C)cc2NC(=S)C1(C)C` [Example 7-16], in the data set on HIV, the “T-cell culture assay MIC” value is 0.4 µg/mL. The “Reverse Transcriptase Assay IC50” value in data set [1] is given as “approx. 1 μg/ml”.

Take `CC1C(=O)Nc2ccc(Cl)cc2N1Cc1ccccc1Cl` (stereo not drawn) [Example 10-21]: the “T-cell culture assay MIC” value in the data set on HIV was under 0.8 µg/mL. For the same molecule, the “Reverse Transcriptase Assay IC50” value in data set [1] fell in the range of 0.1 to 1 µg/mL.

Regarding `C=CCOC(=O)N1c2cc(Cl)ccc2NC(=O)C1C` (stereo not drawn) [Example 3-7], the “T-cell culture assay MIC” value in the data set on HIV is 0.08 µg/mL. The “Reverse Transcriptase Assay IC50” value in data set [1] came to 0.08 µg/mL.

Take `CC(=O)CCN1c2ccccc2NC(=O)C1C` (racemic) [XXXIV, (3RS)-3-Methyl-4-N-(3-oxo-1-butyl)-3,4-dihydroquinoxalin-2(1H)-one]: the melting point lay within 108 to 109 °C.

In the case of `C=C(C)OC(=O)N1c2ccc(Cl)cc2NC(=O)C1C(C)C` (stereo not drawn) [Example 3-57], the “T-cell culture assay MIC” value in the data set with HIV was under 0.8 µg/mL. In addition, the “Reverse Transcriptase Assay IC50” value in data set [1] is on record as “approx. 1 μg/ml”.

As to `C=C(C)OC(=O)N1c2cc(Cl)ccc2NC(=S)C1CSC` (stereo not drawn) [Example 7-23], the “T-cell culture assay MIC” value in the data set on HIV was under 0.01 µg/mL. Moreover, the “Reverse Transcriptase Assay IC50” value in data set [1] fell in the range of 0.01 to 0.1 µg/mL.

Consider `CC1C(=S)Nc2ccc(Cl)cc2N1Cc1ccccc1` (stereo not drawn) [Example 7-3], for which the “T-cell culture assay MIC” value with HIV is under 0.01 µg/mL. Moreover, the “Reverse Transcriptase Assay IC50” value in data set [1] was 0.07 µg/mL.

As for `CSCC1C(=O)Nc2ccc(Cl)cc2N1CC=C(C)C` (stereo not drawn) [Example 3-75], the “T-cell culture assay MIC” value with HIV was under 0.8 µg/mL. The “Reverse Transcriptase Assay IC50” value in data set [1] was 0.1 to 1 µg/mL.

As to `CCCCOC(=O)N1c2cc(Cl)ccc2NC(=O)C1C` (stereo not drawn) [Example 3-25], the “T-cell culture assay MIC” value in the data set with HIV worked out at 0.4 µg/mL. Also, the “Reverse Transcriptase Assay IC50” value in data set [1] lay in the range of 0.1 to 1 µg/mL.

For `CC1C(=O)Nc2ccc(Cl)cc2N1Cc1cccc([N+](=O)[O-])c1` (stereo not drawn) [Example 10-17], the “T-cell culture assay MIC” value in the data set on HIV amounted to 0.8 µg/mL. For the same molecule, in data set [1], the “Reverse Transcriptase Assay IC50” value is reported as “approx. 1 μg/ml”.

`C[C@H]1Nc2cc(Cl)ccc2NC1=O` [Example IC, (3R)-6-Chloro-3-methyl-3,4-dihydroquinoxalin-2(1H)-one] showed a melting point of 123 to 124 °C.

Regarding `C=C(C)OC(=O)N1c2cc(Cl)ccc2NC(=O)[C@@H]1C` [Example XIII, (3S)-6-Chloro-N-(isopropenyloxycarbonyl)-3-methyl-3,4-dihydroquinoxalin-2(1H)-one], the “T-cell culture assay MIC” value in the data set on HIV is under 0.16 µg/mL. In addition, the “Reverse Transcriptase Assay IC50” value in data set [1] is 0.04 µg/mL.

In the case of `C#CCN1c2cc(Cl)ccc2NC(=O)C1C` (stereo not drawn) [Example 10-9], the “T-cell culture assay MIC” value in the data set on HIV is under 0.8 µg/mL. Further, in data set [1], the “Reverse Transcriptase Assay IC50” value was “approx. 1 μg/ml”.

On to `C=C(C)OC(=O)N1c2cc(Cl)ccc2NC(=O)C1CC(C)C` (stereo not drawn) [Example 3-49], for which the “T-cell culture assay MIC” value with HIV is under 0.8 µg/mL. In data set [1], the “Reverse Transcriptase Assay IC50” value is on record as “approx. 1 μg/ml”.

Regarding `CC(C)=CCN1c2ccccc2NC(=O)C1C` (racemic) [XXV, (3RS)-3-Methyl-4-N-(3-methyl-2-buten-1-yl)-3,4-dihydroquinoxalin-2(1H)-one], the melting point lay in the range of 92 to 93 °C.

In the case of `CC1C(=O)Nc2ccc(Cl)cc2N1Cc1ccccc1[N+](=O)[O-]` (stereo not drawn) [Example 10-18], the “T-cell culture assay MIC” value in the data set on HIV was under 0.8 µg/mL. Besides, the “Reverse Transcriptase Assay IC50” value in data set [1] was in the range of 0.1 to 1 µg/mL.

As to `C=C(C)OC(=O)N1c2cc(Cl)ccc2NC(=S)C1(C)C` [Example 7-11], the “T-cell culture assay MIC” value with HIV is under 0.01 µg/mL. Besides, the “Reverse Transcriptase Assay IC50” value in data set [1] came out at 0.01 µg/mL.

Take `C=C(C)OC(=O)N1c2cc(Cl)ccc2NC(=S)C1CC` (stereo not drawn) [Example 7-14]: the “T-cell culture assay MIC” value in the data set with HIV is under 0.08 µg/mL. Also, the “Reverse Transcriptase Assay IC50” value in data set [1] is 0.01 to 0.1 µg/mL.

On to `CCOC(=O)N1c2cc(Cl)ccc2NC(=O)C1C` (stereo not drawn) [Example 3-23], for which, in the data set on HIV, the “T-cell culture assay MIC” value came out at 0.08 µg/mL. Moreover, the “Reverse Transcriptase Assay IC50” value in data set [1] fell in the range of 0.1 to 1 µg/mL.

Consider `CC(C)=CCN1c2cc(Cl)ccc2NC(=S)C1C` (stereo not drawn) [Example 7-2], for which the “T-cell culture assay MIC” value in the data set on HIV is under 0.01 µg/mL. Also, in data set [1], the “Reverse Transcriptase Assay IC50” value was determined as 0.07 µg/mL.

Turning to `C=C(C)OC(=O)N1c2cccc(C)c2NC(=O)C1(C)C` [Example 6-17], in the data set on HIV, the “T-cell culture assay MIC” value was under 0.8 µg/mL. Moreover, the “Reverse Transcriptase Assay IC50” value in data set [1] was 0.1 to 1 µg/mL.

Turning to `CC1(C)Nc2cc(Cl)ccc2NC1=S` [Example 7-13], in the data set with HIV, the “T-cell culture assay MIC” value was under 0.08 µg/mL. Besides, the “Reverse Transcriptase Assay IC50” value in data set [1] fell in the range of 0.1 to 1 µg/mL.

In the case of `CCC1C(=O)Nc2ccc(Cl)cc2N1CC=C(C)C` (stereo not drawn) [Example 3-29], the “T-cell culture assay MIC” value in the data set with HIV was under 0.4 µg/mL. Besides, the “Reverse Transcriptase Assay IC50” value in data set [1] lay within 0.1 to 1 µg/mL.

As to `C=C(C)OC(=O)N1c2ccc(Cl)cc2NC(=S)C1(C)C` [Example 7-12], the “T-cell culture assay MIC” value with HIV was under 0.8 µg/mL. Also, the “Reverse Transcriptase Assay IC50” value in data set [1] is recorded as “approx. 1 μg/ml”.
